Our source for the Potency and outcome values is PubChem BioAssay AID1199 (EPA DSSTox, 2008).

For this data set, the system named is mouse carcinogenicity bioassay, TD50 from CPDB. In words: DSSTox (CPDBAS) Carcinogenic Potency Database Summary Mouse Bioassay Results. The procedure, abridged:
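Values are TD50 carcinogenic potencies from mouse chronic bioassays, taking the most positive result for each sex-species. Sources are published literature and NCI/NTP studies; target sites reflect author-reported positive findings.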

Setting [1] is: TD50_Mouse_Note: TD50 is harmonic mean of more than one positive test, TargetSites_Mouse_Female: liver.
[2] abbreviates: TD50_Mouse_Note: no positive results, TargetSites_Mouse_Female: no positive results.
[3] abbreviates: TD50_Mouse_Note: TD50 is harmonic mean of more than one positive test, TargetSites_Mouse_Female: lung.
The mark [4] stands for this setting: TD50_Mouse_Note: TD50 is harmonic mean of more than one positive test, TargetSites_Mouse_Female: liver, lung, stomach.
Where [5] appears, read: TD50_Mouse_Note: TD50 is harmonic mean of more than one positive test, TargetSites_Mouse_Female: gall bladder, liver, lung.
Where [6] appears, read: TargetSites_Mouse_Female: liver.
The mark [7] stands for this setting: TD50_Mouse_Note: TD50 is harmonic mean of more than one positive test, TargetSites_Mouse_Female: liver, lung.
[8] abbreviates: TargetSites_Mouse_BothSexes: no positive results.
[9] abbreviates: TD50_Mouse_Note: TD50 is harmonic mean of more than one positive test, TargetSites_Mouse_Female: lung, vascular system.

The structures appear in SMILES notation. Calls of active or inactive are those of the source.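 How the source made its calls: active means a tumour-causing dose and a tumour site recorded for mice in at least one sex group; inconclusive means only government mouse studies exist and were judged inadequate; inactive means mouse studies exist but none gave tumours.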

For the molecule `Nc1ccc2ccccc2c1`, under setting [1], the Potency was 0.275 mmol/kg/day. Take `C=C(C)[C@H]1CC=C(C)CC1`: the outcome under setting [2] was “inactive; no positive results”. As for `O=CNNC=O`, under setting [3], the Potency was 7.59 mmol/kg/day. Regarding `CC(C)OC(=O)COc1ccc(Cl)cc1Cl`, the outcome under setting [2] was “inactive; no positive results”. For the molecule `Nc1c(Br)cc(Br)c2c1C(=O)c1ccccc1C2=O`, the Potency under setting [4] is 1.25 mmol/kg/day. As for `O=[N+]([O-])c1ccc(Cl)cc1`, the Potency (TD50_Mouse_Note: TD50 is harmonic mean of more than one positive test, TargetSites_Mouse_Female: vascular system) is 3 mmol/kg/day. Consider `CCCN(N)C=O`, for which, under setting [5], the Potency is 0.061 mmol/kg/day. Regarding `Nc1ccc(Cc2ccc(N)c(Cl)c2)cc1Cl`, the Potency under setting [6] was 0.196 mmol/kg/day. In the case of `Cc1cnc2ccc3c(nc(N)n3C)c2n1`, the Potency under setting [7] was 0.114 mmol/kg/day. Consider `O=C/C=C/c1ccccc1`, for which the outcome under setting [2] was “inactive; no positive results”.

As for `FC(F)OC(Cl)C(F)(F)F` (stereo unspecified), the outcome under setting [2] was “inactive; no positive results”.

As to `ClC1=C(Cl)[C@]2(Cl)[C@@H]3[C@H]4C[C@H]([C@@H]5O[C@H]45)[C@@H]3[C@@]1(Cl)C2(Cl)Cl`, under setting [2], the outcome was “inactive; no positive results”.

Consider `CN(C)c1ccccc1`, for which, under setting [2], the outcome was “inactive; no positive results”. For the molecule `CCOC(=O)[C@]1(c2ccccc2)CCC=C[C@H]1N(C)C`, under setting [2], the outcome is “inactive; no positive results”. The same measure, in the same setting: for `Nc1ccc(O)c([N+](=O)[O-])c1` the value was “inactive; no positive results”. For the molecule `O=c1cc[nH]c(=O)[nH]1`, the Potency (TD50_Mouse_Note: TD50 is harmonic mean of more than one positive test, greater than ten-fold variation among TD50 values for positive res, TargetSites_Mouse_Female: urinary bladder) was 24.5 mmol/kg/day. For `Nc1ccc(NC(=O)c2ccc(N)cc2)cc1`, the outcome under setting [2] was “inactive; no positive results”.

On to `NC(N)=S`, for which the result under setting [2] was inactive. In the case of `CCCCC/C=N/N(C)C=O`, the Potency under setting [7] was 0.0149 mmol/kg/day.

With `CCCCCl`, under setting [2], the outcome is “inactive; no positive results”. For the molecule `O=CCCl`, for the setting “TargetSites_Mouse_Female: no positive results”, the Potency is 0.46 mmol/kg/day. Regarding `O=C(O)COc1cc(Cl)c(Cl)cc1Cl`, the outcome under setting [2] is “inactive; no positive results”. Take `COc1c(Cl)c(Cl)c([N+](=O)[O-])c(Cl)c1Cl`: under setting [2], the outcome is “inactive; no positive results”.

In the case of `C#C[C@]1(O)CC[C@H]2[C@@H]3CCc4cc(OC)ccc4[C@H]3CC[C@@]21C`, the outcome under setting [2] was “inactive; no positive results”. On to `[O]=[Nb](=[O])[OH]`, for which, under setting [8], the outcome was inactive.

`ClCC1CO1` (stereo unspecified): the result under setting [2] was inactive. In the case of `[CH3][Hg][Cl]`, under “TD50_Mouse_Note: TD50 is harmonic mean of more than one positive test, TargetSites_Mouse_Female: no positive results”, the Potency was 0.00578 mmol/kg/day.

For `CCOC(=O)CBr`, the outcome under setting [2] was inactive. On to `CCC1CO1` (stereo unspecified), for which the outcome under setting [2] is “inactive; no positive results”. On to `Cc1cc(=O)[nH]c(=S)[nH]1`, for which the outcome under setting [8] was inactive. For the molecule `Oc1ccc(Cl)cc1Cl`, under setting [2], the outcome was “inactive; no positive results”.

Consider `CN(N=O)C1=Nc2ccc(Cl)cc2C(c2ccccc2)=[N+]([O-])C1`, for which the outcome under setting [2] is “inactive; no positive results”. For `ClCOCC(COCCl)OCCl`, where the note is “TD50_Mouse_Note: positive test results only by intraperitoneal or intravenous injection, TargetSites_Mouse_Female: peritoneal cavity”, the Potency was 0.0145 mmol/kg/day.

As to `O=C1C(c2[nH]c3ccc(S(=O)(=O)O)cc3c2O)=Nc2ccc(S(=O)(=O)O)cc21`, under setting [2], the outcome is “inactive; no positive results”. On to `C=CCOC(=O)c1ccccc1C(=O)OCC=C`, for which the outcome under setting [2] is “inactive; no positive results”. Consider `CNC(=O)Oc1cccc2c1OC(C)(C)C2`, for which the outcome under setting [2] was “inactive; no positive results”. `NNC(=O)c1cccnc1`: the Potency under setting [3] was 1.66 mmol/kg/day. For the molecule `CNC(=O)O/N=C(\SC)C(=O)N(C)C`, under setting [2], the outcome is “inactive; no positive results”. As to `C[N+](=O)[O-]`, the Potency (TD50_Mouse_Note: TD50 is harmonic mean of more than one positive test, TargetSites_Mouse_Female: harderian gland, liver, lung) was 7.68 mmol/kg/day. As to `Nc1ccc(NCCO)c([N+](=O)[O-])c1`, the outcome (TD50_Mouse_Note: no positive results, TargetSites_Mouse_Female: NTP bioassay inadequate) is “inactive; no positive results”.

On to `Nc1ccc(Oc2ccc(N)cc2)cc1`, for which, under “TD50_Mouse_Note: TD50 is harmonic mean of more than one positive test, TargetSites_Mouse_Female: harderian gland, liver, thyroid gland”, the Potency is 0.168 mmol/kg/day. In the case of `CC(C)C/C=N/N(C)C=O`, the Potency under setting [5] was 0.0157 mmol/kg/day. Regarding `Nc1c(Cl)cc([N+](=O)[O-])cc1Cl`, under setting [2], the outcome was “inactive; no positive results”.

`ClC(Cl)(Cl)C(Cl)(Cl)Cl`: under setting [1], the Potency was 1.43 mmol/kg/day. With `COc1ccc2c3c1O[C@H]1[C@@H](O)C=C[C@H]4[C@@H](C2)N(C)CC[C@@]341`, under setting [2], the outcome is “inactive; no positive results”. Turning to `NC(=O)c1ccccc1C(N)=O`, the outcome under setting [2] was “inactive; no positive results”. In the case of `Clc1ccc(Cl)cc1`, the Potency under setting [1] was 2.2 mmol/kg/day.

Consider `CCn1cc(C(=O)O)c(=O)c2ccc(C)nc21`, for which, under setting [2], the outcome is “inactive; no positive results”. For `CCN(Cc1cccc(S(=O)(=O)O)c1)c1ccc(C(=C2C=CC(=[N+](CC)Cc3cccc(S(=O)(=O)O)c3)C=C2)c2ccc(O)cc2S(=O)(=O)[O-])cc1`, the outcome under setting [2] was “inactive; no positive results”.

On to `CN(C)[C@@H]1C(=O)C(C(N)=O)=C(O)[C@@]2(O)C(=O)C3=C(O)c4c(O)cccc4[C@@](C)(O)[C@H]3[C@H](O)[C@@H]12`, for which the outcome under setting [2] is “inactive; no positive results”. Turning to `COc1cc(N)ccc1N=Nc1ccccc1`, the outcome under setting [2] was “inactive; no positive results”. Take `O=CCCCC=O`: the outcome under setting [2] is “inactive; no positive results”.

Turning to `S=[Se]`, the Potency (TargetSites_Mouse_Female: liver, lung) was 0.624 mmol/kg/day. On to `COc1ccc(N)c(OC)c1`, for which, under setting [2], the outcome was “inactive; no positive results”. For `CCNc1nc(Cl)nc(NCC)n1`, the outcome under setting [2] is “inactive; no positive results”. As to `COC(=O)C1=CCCN(C)C1`, the Potency under setting [9] is 0.206 mmol/kg/day. With `N[C@@H](CCC(=O)O)C(=O)O`, the outcome (TD50_Mouse_Note: no positive results) is “inactive; no positive results”.

Take `CCCC[C@H](C)[C@@H](OC(=O)C[C@H](CC(=O)O)C(=O)O)[C@@H](C[C@H](C)C[C@@H](O)CCCC[C@@H](O)C[C@H](O)[C@H](C)N)OC(=O)C[C@H](CC(=O)O)C(=O)O`: the Potency under setting [6] is 0.00941 mmol/kg/day. Consider `NNCCc1ccccc1`, for which the Potency (TargetSites_Mouse_Female: lung, vascular system) was 0.0623 mmol/kg/day.

On to `CNc1ccc(N(CCO)CCO)cc1[N+](=O)[O-]`, for which the Potency under setting [1] is 0.308 mmol/kg/day and the Potency (TD50_Mouse_Note: TD50 is harmonic mean of more than one positive test, harmonic mean of TD50 includes a value for upper 99% confidence li, TargetSites_Mouse_Female: liver) is 0.338 mmol/kg/day. Take `CNC(=S)N(C)C`: the outcome under setting [2] was “inactive; no positive results”.

Take `Nc1ccc(N=Nc2ccccc2)c(N)n1`: under setting [6], the Potency was 0.285 mmol/kg/day. With `CC(C)(Oc1ccc(C2CC2(Cl)Cl)cc1)C(=O)O` (stereo unspecified), the Potency (TD50_Mouse_Note: TD50 is harmonic mean of more than one positive test) is 0.0214 mmol/kg/day. For `CC(=O)Nc1ccc(N=Nc2cc(C)ccc2O)cc1`, the Potency under setting [6] is 3.79 mmol/kg/day. On to `CN(N=O)C(N)=O`, for which the Potency was 0.0119 mmol/kg/day. In the case of `O=P(OCC(Br)CBr)(OCC(Br)CBr)OCC(Br)CBr` (stereo unspecified), the Potency under setting [4] is 0.183 mmol/kg/day. With `NC(N)=O`, under setting [2], the outcome was “inactive; no positive results”. On to `ClCC(Cl)(Cl)Cl`, for which the Potency under setting [1] is 1.08 mmol/kg/day. For the molecule `O=C(O)CCCc1ccc(N(CCCl)CCCl)cc1`, the Potency (TD50_Mouse_Note: positive test results only by intraperitoneal or intravenous injection, TD50 is harmonic mean of more than one positive, TargetSites_Mouse_Female: lung) is 0.000437 mmol/kg/day. For `Clc1ccc2c(c1)Oc1ccc(Cl)cc1O2`, under setting [2], the outcome was “inactive; no positive results”.

In the case of `FC(F)OC(F)(F)C(F)Cl` (stereo unspecified), under setting [2], the outcome is “inactive; no positive results”. Regarding `ClC1=C(Cl)[C@]2(Cl)[C@@H]3[C@H]4C=CC(C4)[C@@H]3C1(Cl)C2(Cl)Cl`, the Potency (TD50_Mouse_Note: TD50 is harmonic mean of more than one positive test, TargetSites_Mouse_BothSexes: liver) was 0.00348 mmol/kg/day. For the molecule `CN(C)NC(=O)CCC(=O)O`, the Potency under setting [9] was 6.43 mmol/kg/day. Turning to `CCCc1c(OCCCCc2nn[nH]n2)ccc(C(C)=O)c1O`, the Potency under setting [6] was 0.352 mmol/kg/day. With `Brc1cc(Br)c(-c2cc(Br)c(Br)cc2Br)cc1Br`, the Potency under setting [1] was 0.000529 mmol/kg/day. For `O=C(NCC1CCCCN1)c1cc(OCC(F)(F)F)ccc1OCC(F)(F)F` (stereo unspecified), the outcome under setting [2] was “inactive; no positive results”. In the case of `O=C1CN=C(c2ccccc2)c2cc(Cl)ccc2N1CC1CC1`, the outcome under setting [2] is “inactive; no positive results”. In the case of `Cc1cc(O)c(C)c2c1OC(C)(CCCC(C)CCCC(C)CCCC(C)C)CC2` (stereo unspecified), the Potency is 8.66 mmol/kg/day. On to `C=CCl`, for which, under “TD50_Mouse_Note: TD50 is harmonic mean of more than one positive test, TargetSites_Mouse_Female: lung, mammary gland, vascular system”, the Potency was 0.349 mmol/kg/day. For `C[C@](N)(Cc1ccc(O)c(O)c1)C(=O)O`, the outcome under setting [2] is “inactive; no positive results”. For `CCCCC(CC)CO` (stereo unspecified), under setting [6], the Potency is 12.9 mmol/kg/day.

Regarding `Nc1nc(-c2ccc([N+](=O)[O-])o2)cs1`, where the note is “TargetSites_Mouse_Female: stomach”, the Potency is 0.0373 mmol/kg/day.

As for `[Na+]`, the outcome under setting [2] was “inactive; no positive results”. As to `CC(=O)NN`, the Potency under setting [3] is 0.133 mmol/kg/day. On to `BrC(Br)Br`, for which the outcome under setting [2] was “inactive; no positive results”.

`O=C(O)/C=C/c1ccc(O)c(O)c1`: the Potency (TD50_Mouse_Note: TD50 is harmonic mean of more than one positive test, TargetSites_Mouse_Female: kidney, stomach) was 27.2 mmol/kg/day.

Turning to `C=C(C)C`, the outcome under setting [2] is “inactive; no positive results”. Regarding `O=C([O-])C(=O)O.O=C([O-])C(=O)O.[K+].[K+].[O]=[Ti]`, the outcome under setting [2] is “inactive; no positive results”.

For the molecule `CCOC(=O)CC(SP(=O)(OC)OC)C(=O)OCC` (stereo unspecified), the outcome under setting [2] was “inactive; no positive results”.

As to `C=C(C)[C@H]1CC=C(C)C(=O)C1`, the outcome under setting [2] is “inactive; no positive results”.
